Laboratory results: ChEMBL document CHEMBL1156488, “Selective induction of chemotherapy resistance of mammary tumors in a conditional mouse model for hereditary breast cancer” (2007)
The source made the active and inactive calls. No cut-off for these calls is given here.

Columns and labels:
[1] = Antitumor activity in Brca1 and p53 deficient mouse mammary tumor cell xenografted mouse hereditary breast cancer model assessed as median survival at 5 mg/kg, iv; type: functional
Mus musculus [2] = experiment: Antitumor activity in Brca1 and p53 deficient K14cre mouse hereditary breast cancer model at 5 mg/kg, iv; type: functional, organism-based; design: dose 5 mg/kg
[3] = Antitumor activity in Brca1 and p53 deficient mouse mammary tumor cell xenografted mouse hereditary breast cancer model assessed as median survival at 25 mg/kg, iv; type: functional
Mus musculus [4] = experiment: Antitumor activity in doxorubicin-sensitive Brca1 and p53 deficient mouse mammary tumor cell xenografted mouse hereditary breast cancer model at 25 mg/kg, iv; type: functional, organism-based; design: dose 25 mg/kg
Mus musculus [5] = experiment: Antitumor activity in Brca1 and p53 deficient K14cre mouse hereditary breast cancer model at 25 mg/kg, iv; type: functional, organism-based; design: dose 25 mg/kg
T*23 = experiment: Antitumor activity in doxorubicin-resistant Brca1 and p53 deficient mouse mammary tumor T*23 cell xenografted mouse hereditary breast cancer model at 25 mg/kg, iv; type: functional, organism-based; design: dose 25 mg/kg

SMILES	Survival [1]	Activity (Mus musculus [2])	Survival [3]	Activity (Mus musculus [4])	Activity (Mus musculus [5])	Activity (T*23)
COc1cccc2c1C(=O)c1c(O)c3c(c(O)c1C2=O)C[C@@](O)(C(=O)CO)C[C@@H]3O[C@H]1C[C@H](N)[C@H](O)[C@H](C)O1 [DOXORUBICIN]	63 days	Active				
CC(=O)O[C@@]12CO[C@@H]1C[C@H](O)[C@@]1(C)C(=O)[C@H](O)C3=C(C)[C@@H](OC(=O)[C@H](O)[C@@H](NC(=O)OC(C)(C)C)c4ccccc4)C[C@@](O)([C@@H](OC(=O)c4ccccc4)[C@H]21)C3(C)C.O.O.O [DOCETAXEL]			44 days	Active	Active	inactive
